{
  "source": "patent US9056139B2",
  "about": "“Fatty acid-salicylate conjugates with enhanced therapeutic properties” (KEAN UNIVERSITY, priority 2012, dated 2015)",
  "test_system": "HT-29 human adenocarcinoma cells",
  "assay": "Apoptosis induction in Human Adenocarcinoma cells (HT-29)",
  "assay_type": "cell-based",
  "settings": "HT-29 cells, FIG. 18 and FIG. 19",
  "data": [
    {"molecule": "CC/C=C\\C/C=C\\C/C=C\\C/C=C\\C/C=C\\C/C=C\\CCC(=O)Oc1ccccc1C(=O)O", "note": "[DHASPIR, 2-((4Z,7Z,10Z,13Z,16Z,19Z)-docosa-4,7,10,13,16,19-hexaenoyloxy)benzoic acid]", "values": [
      {"measurement": "pro-apoptotic effect", "result": "same pro-apoptotic effect as the DHA/acetyl salicylate combination"}
    ]}
  ]
}
